Results reported in patent publication US20220288058A1, “COMBINATION THERAPY USING A MALT1 INHIBITOR AND A BTK INHIBITOR” (Janssen Pharmaceutica NV, priority 2021, published 2022).

Test system: human IL-10
Assay: Study 1: circulating human IL-10 cytokine serum levels in OCI-LY10 tumor bearing NSG mice (MSD assay)
Type: in vivo, mouse
Description: In Study 1, 5×10^6 OCI-LY10 cells in PBS containing 50% Matrigel™ were injected subcutaneously (SC) into the right hind flank of female NSG mice. Tumor growth was measured over time and once tumors reached volumes of approximately 525 mm^3, mice were randomized in groups of 15 and treated orally with a single dose of Compound B according to treatment schedule (see Table 4). Blood was collected serially by mandibular vein sampling from 5 animals per time point per group to determine circulating compound concentration and IL10 levels at 2, 4, 8, 12, 16, and 24 hours post single dose. Blood was harvested in EDTA and plasma was obtained via centrifugation at 3000 rpm for 10 minutes. In addition, tumor samples were harvested from 5 animals per timepoint per treatment group for BTK occupancy studies at 4, 12, and 24 hours post single dose.
NF-κB signaling regulates the secretion of multiple cytokines, including interleukin-10 (IL-10). Both BTK and MALT1 inhibition effect NF-kB signaling resulting in decreased IL-10 transcription and secretion. Circulating human IL-10 cytokine levels were measured in the serum of OCI-LY10 ABC-DLBCL tumor bearing NSG mice, using a Mesoscale Discovery assay (MSD). 25 μL of mouse serum was transferred to an MSD plate (V-Plex Proinflammation Panel 1 [human] kit) and incubated together with 25 μl diluent 2 (MSD; R51BB-3) for 2 hours at RT followed by a 2-hour incubation with IL-6/-10 antibody solution. Plates were read on a SECTOR imager.

With `C=CC(=O)N[C@H]1CCC[C@H]1NC(=O)c1sc2nccc3c2c1NC(=O)N3c1cnc(CC(C)C)cc1C` (atropisomer, axis not shown) [Compound B, N-((1R,2S)-2-acrylamidocyclopentyl)-5-(S)-(6-isobutyl-4-methylpyridin-3-yl)-4-oxo-4,5-dihydro-3H-1-thia-3,5,8-triazaacenaphthylene-2-carboxamide] the “human IL-10 serum level, % of vehicle control” value (from here on “human IL-10 serum level, %”) (2 hours after single oral dose, dose level not specified) was “around 50%”, the “human IL-10 serum level, %” value (4 hours after single dose, 10 mg/kg) was “below 20%” and the “human IL-10 serum level, %” value (4 hours after single dose, 30 mg/kg) was under 10%. For the same molecule, the “human IL-10 serum level, %” value (4 hours after single dose, 100 mg/kg) was under 5%, the “human IL-10 serum level, %” value (16 hours after single dose, 10 mg/kg) was 39% and the “human IL-10 serum level, %” value (16 hours after single dose, 30 mg/kg) was 23%. For the same molecule, the “human IL-10 serum level, %” value (16 hours after single dose, 100 mg/kg) was 23%, the “human IL-10 serum level” value (24 hours after single dose) was “normalize” and the “decrease in circulating human IL-10 cytokine serum levels” value (Compound B at 1, 3, 10, 30, or 100 mg/kg single dose, maximal at ≥ 10 mg/kg from 4-8 hours, baseline by 24 hours) was “Dose-and time-dependent”. For the same molecule, the “serum interleukin (IL)-10 secretion” value (single dose as low as 30 mg/kg, effects lasting up to 24 hours) was “completely inhibited” and the “human IL-10 serum level” value (up to 12 hours after single dose, 10, 30, 100 mg/kg) was “remaining low”.
